The source made the active and inactive calls. The rule behind the calls is not given here.
Experiments:
[1] = test system: Hepatocyte; experiment: cells; format: functional; settings: Rattus norvegicus, 24 h, read-out: LC50 (the source's name)
[2] = test system: Hepatocyte; settings: Rattus norvegicus

Row | Compound | CC50 [1] | LC50 [2]
1 | CC(C)(C#N)c1cc(Cn2cncn2)cc(C(C)(C)C#N)c1 [ANASTROZOLE] | > 200 µM | –
2 | COc1ccc2cc(C(c3ccc(Cl)cc3)n3cncn3)oc2c1 (stereo not drawn) | 50 µM | inactive
3 | COc1ccc(C(c2cc3ccc(OC)cc3o2)n2ccnc2)cc1 (stereo not drawn) | 50 µM | inactive
4 | COc1ccc(C(c2cc3ccc(OC)cc3o2)n2cncn2)cc1 (stereo not drawn) | 90 µM | inactive
5 | COc1ccc2cc(C(c3ccc(F)cc3)n3cncn3)oc2c1 (stereo not drawn) | 100 µM | inactive
6 | COc1ccc(C(O)(c2cccnc2)c2cc3ccc(OC)cc3o2)cc1 (stereo not drawn) | 100 µM | inactive
7 | COc1ccc2cc(C(O)(c3ccc(F)cc3)c3cccnc3)oc2c1 (stereo not drawn) | > 100 µM | inactive
